Source: ChEMBL document CHEMBL5465560, “Selectivity Literature for EUbOPEN Chemogenomic Library” (2024)

How the values were obtained:
[1] = target: Microtubule-associated serine/threonine-protein kinase 1 (Homo sapiens) (UniProt Q9Y2H9); assay: Selectivity interaction (KinomeScan (DiscoverX)) EUB0000666a MAST1; conditions: at 10 µM
[2] = target: Hepatocyte growth factor-like protein (Homo sapiens) (UniProt P26927); conditions: at 10 µM
[3] = target: T1, Ephrin type-B receptor 2 (Homo sapiens) (UniProt P29323); assay: Selectivity interaction (ProQinase) EUB0000171b EPHB2
T1 sequence (whole entry): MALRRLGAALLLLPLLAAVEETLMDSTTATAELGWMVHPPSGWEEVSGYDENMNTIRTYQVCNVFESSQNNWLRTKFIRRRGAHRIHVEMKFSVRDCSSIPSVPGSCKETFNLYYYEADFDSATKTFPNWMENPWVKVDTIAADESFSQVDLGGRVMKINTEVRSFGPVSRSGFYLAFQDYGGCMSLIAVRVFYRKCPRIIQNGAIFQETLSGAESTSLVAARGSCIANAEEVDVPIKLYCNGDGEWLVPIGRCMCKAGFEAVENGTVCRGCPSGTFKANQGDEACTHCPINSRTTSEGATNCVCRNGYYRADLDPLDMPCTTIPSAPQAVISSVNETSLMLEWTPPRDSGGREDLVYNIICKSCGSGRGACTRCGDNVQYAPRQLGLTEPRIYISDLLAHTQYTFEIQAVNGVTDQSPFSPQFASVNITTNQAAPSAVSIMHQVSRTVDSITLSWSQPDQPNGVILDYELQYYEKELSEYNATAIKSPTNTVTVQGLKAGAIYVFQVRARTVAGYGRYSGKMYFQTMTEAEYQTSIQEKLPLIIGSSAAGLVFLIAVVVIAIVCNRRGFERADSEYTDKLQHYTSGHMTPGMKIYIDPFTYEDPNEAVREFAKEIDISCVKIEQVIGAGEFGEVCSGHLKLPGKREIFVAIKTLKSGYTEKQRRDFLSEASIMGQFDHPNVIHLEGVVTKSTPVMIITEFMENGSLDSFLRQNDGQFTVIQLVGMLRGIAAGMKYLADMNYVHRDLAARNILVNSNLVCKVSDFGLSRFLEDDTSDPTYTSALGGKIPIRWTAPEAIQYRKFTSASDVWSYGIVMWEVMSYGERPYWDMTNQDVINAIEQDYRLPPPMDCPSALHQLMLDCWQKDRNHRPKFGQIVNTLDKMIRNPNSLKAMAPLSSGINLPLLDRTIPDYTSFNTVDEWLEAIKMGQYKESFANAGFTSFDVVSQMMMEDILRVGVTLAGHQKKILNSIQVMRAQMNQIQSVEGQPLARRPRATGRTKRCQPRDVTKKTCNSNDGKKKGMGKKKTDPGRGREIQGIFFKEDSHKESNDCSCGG

[4] = target: DNA-dependent protein kinase catalytic subunit (Homo sapiens) (UniProt P78527); assay: Selectivity interaction (ProQinase) EUB0000171b PRKDC
DNA-dependent protein kinase catalytic subunit (Homo sapiens), sequence (P78527 whole entry): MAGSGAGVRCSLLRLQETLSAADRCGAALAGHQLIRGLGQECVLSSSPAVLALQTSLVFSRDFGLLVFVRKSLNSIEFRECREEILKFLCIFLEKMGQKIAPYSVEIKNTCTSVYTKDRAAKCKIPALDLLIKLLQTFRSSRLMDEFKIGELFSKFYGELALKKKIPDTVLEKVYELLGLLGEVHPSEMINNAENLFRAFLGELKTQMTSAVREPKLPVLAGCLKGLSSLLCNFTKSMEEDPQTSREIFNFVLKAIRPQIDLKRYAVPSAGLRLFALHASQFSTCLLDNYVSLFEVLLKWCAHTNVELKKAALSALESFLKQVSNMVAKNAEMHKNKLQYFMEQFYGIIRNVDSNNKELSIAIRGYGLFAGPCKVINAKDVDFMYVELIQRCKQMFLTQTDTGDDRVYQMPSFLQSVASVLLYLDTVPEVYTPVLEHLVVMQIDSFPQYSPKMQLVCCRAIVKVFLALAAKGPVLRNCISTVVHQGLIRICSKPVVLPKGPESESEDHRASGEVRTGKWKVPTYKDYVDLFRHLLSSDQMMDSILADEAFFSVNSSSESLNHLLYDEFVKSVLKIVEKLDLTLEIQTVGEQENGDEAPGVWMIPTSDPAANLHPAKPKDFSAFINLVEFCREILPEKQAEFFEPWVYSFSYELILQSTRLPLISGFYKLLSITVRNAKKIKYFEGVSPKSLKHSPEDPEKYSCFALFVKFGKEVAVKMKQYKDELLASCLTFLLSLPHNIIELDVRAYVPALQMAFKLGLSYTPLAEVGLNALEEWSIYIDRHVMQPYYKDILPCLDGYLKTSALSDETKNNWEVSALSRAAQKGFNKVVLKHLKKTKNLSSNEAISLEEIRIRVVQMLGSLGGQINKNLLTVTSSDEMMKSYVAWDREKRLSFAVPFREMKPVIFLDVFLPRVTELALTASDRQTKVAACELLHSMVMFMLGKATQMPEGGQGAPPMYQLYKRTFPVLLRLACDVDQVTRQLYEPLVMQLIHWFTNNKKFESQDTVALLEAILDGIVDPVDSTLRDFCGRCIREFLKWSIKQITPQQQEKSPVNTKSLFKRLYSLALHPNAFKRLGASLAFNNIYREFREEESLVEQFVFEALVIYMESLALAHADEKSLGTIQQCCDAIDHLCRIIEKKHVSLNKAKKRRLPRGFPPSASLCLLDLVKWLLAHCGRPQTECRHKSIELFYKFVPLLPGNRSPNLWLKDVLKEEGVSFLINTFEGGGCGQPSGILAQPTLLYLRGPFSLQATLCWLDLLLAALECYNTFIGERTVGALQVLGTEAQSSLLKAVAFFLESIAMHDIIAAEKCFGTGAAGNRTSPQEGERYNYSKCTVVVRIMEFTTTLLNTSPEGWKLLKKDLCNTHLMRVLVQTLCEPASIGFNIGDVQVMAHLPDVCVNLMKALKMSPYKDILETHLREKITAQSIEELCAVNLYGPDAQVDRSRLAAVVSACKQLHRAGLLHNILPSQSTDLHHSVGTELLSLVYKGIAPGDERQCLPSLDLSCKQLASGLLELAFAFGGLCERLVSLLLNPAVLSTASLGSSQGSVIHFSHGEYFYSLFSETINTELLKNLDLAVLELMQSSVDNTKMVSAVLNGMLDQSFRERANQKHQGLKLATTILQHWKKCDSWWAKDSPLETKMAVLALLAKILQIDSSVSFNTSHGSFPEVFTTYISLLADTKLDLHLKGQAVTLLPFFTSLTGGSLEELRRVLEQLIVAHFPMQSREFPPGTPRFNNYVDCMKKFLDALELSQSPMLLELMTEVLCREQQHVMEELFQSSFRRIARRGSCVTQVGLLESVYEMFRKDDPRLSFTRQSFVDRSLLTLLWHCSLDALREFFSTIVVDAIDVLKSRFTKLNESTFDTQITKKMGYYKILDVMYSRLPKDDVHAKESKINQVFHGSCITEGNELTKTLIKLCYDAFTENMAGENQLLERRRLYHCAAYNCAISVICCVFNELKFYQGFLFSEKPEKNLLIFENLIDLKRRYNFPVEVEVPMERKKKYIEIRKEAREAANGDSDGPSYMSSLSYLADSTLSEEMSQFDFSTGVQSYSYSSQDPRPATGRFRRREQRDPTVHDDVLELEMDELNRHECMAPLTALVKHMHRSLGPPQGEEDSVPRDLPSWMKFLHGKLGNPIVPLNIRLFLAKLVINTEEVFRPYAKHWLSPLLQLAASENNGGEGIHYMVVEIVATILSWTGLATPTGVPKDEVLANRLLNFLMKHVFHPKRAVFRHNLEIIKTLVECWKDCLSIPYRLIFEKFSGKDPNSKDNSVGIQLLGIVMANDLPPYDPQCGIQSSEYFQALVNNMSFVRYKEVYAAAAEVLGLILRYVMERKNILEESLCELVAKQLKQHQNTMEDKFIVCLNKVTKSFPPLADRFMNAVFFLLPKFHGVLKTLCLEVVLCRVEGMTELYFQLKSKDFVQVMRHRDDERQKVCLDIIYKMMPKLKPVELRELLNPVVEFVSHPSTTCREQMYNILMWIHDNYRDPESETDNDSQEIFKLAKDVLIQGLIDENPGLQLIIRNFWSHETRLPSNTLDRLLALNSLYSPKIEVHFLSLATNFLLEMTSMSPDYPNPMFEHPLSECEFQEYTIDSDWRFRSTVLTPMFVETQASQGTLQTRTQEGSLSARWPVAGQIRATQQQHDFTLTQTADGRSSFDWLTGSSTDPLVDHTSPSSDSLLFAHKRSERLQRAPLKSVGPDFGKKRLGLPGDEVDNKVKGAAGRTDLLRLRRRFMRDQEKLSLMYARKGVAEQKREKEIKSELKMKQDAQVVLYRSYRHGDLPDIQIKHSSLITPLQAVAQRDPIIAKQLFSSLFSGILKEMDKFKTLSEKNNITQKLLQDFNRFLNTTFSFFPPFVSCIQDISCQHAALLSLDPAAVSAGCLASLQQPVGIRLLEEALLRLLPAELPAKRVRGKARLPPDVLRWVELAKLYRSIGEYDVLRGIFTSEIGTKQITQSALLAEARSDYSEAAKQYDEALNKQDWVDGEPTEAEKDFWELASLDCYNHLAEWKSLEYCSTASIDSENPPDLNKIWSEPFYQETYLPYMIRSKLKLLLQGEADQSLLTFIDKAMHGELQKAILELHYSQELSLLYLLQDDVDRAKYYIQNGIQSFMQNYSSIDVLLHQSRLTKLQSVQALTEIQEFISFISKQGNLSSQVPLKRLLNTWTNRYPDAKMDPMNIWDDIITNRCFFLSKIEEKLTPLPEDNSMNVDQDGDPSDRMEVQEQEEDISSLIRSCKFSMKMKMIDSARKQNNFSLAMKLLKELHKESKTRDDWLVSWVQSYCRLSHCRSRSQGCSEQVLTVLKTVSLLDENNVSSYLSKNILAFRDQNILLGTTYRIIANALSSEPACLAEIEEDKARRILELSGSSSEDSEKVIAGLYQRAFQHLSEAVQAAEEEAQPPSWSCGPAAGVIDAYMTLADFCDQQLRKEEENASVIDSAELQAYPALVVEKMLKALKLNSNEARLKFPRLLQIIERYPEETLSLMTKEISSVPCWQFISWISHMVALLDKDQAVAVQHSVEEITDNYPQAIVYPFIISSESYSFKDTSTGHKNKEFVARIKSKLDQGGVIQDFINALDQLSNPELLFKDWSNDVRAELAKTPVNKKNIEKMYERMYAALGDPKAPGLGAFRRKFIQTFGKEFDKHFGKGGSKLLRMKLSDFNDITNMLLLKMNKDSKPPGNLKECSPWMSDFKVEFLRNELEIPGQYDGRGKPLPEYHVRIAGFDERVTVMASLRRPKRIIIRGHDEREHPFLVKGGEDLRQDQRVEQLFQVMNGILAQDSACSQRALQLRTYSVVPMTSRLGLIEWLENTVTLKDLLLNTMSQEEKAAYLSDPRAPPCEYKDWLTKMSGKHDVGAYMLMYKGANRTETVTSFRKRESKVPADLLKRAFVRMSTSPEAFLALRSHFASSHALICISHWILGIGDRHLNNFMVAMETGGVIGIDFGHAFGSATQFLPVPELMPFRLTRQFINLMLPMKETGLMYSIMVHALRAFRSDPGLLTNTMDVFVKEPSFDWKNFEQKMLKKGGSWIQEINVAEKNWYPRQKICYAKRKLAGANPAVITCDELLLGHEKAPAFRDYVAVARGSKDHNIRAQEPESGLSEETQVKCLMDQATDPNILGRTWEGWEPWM

[5] = target: Serine/threonine-protein kinase PAK 4 (Homo sapiens, UniProt O96013); assay: Selectivity interaction (KinomeScan (DiscoverX)) EUB0001619a PAK4; conditions: at 1 µM
[6] = target: Protein kinase C eta type (Homo sapiens) (UniProt P24723); assay: Selectivity interaction (SelectScreen profiling (Invitrogen)) EUB0000607a PRKCH; conditions: at 2 µM
Protein kinase C eta type (Homo sapiens), sequence (P24723 whole entry): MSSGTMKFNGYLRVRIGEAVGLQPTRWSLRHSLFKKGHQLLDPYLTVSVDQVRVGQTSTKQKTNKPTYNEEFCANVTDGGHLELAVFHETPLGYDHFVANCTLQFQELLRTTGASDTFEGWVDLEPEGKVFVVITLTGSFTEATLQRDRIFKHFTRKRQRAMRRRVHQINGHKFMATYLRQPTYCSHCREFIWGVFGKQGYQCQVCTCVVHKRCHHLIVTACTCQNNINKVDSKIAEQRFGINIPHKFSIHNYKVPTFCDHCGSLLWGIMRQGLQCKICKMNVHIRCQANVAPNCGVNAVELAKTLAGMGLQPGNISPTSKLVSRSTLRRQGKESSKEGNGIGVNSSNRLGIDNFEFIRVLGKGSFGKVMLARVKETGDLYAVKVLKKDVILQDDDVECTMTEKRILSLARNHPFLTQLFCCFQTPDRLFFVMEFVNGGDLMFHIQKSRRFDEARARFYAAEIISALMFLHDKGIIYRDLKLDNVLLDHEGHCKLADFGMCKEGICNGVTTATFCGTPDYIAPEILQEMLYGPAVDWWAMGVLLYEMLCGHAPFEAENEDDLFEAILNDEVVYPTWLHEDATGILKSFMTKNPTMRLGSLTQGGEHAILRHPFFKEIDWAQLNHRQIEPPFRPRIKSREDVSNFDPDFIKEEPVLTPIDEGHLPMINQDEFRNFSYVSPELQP

[7] = target: Tyrosine-protein kinase JAK2 (Homo sapiens, UniProt O60674); assay: Selectivity interaction (SelectScreen profiling (Invitrogen)) EUB0000607a JAK2; conditions: at 2 µM
[8] = target: Tyrosine-protein kinase JAK1 (Homo sapiens, UniProt P23458); assay: Selectivity interaction (SelectScreen Kinase Profiling (Thermo Fisher Scientific)) EUB0001558a JAK1; conditions: at 1 µM
[9] = target: Calcium/calmodulin-dependent protein kinase kinase 2 (Homo sapiens) (UniProt Q96RR4); assay: Selectivity interaction (KinomeScan (DiscoverX)) EUB0000618a CAMKK2; conditions: at 10 µM
[10] = target: Serine/threonine-protein kinase N1 (Homo sapiens, UniProt Q16512); assay: Selectivity interaction (ActivX KiNativ screen (kinase selectivity in THP-1 cell lysates)) EUB0000639a PKN1; assay type: subcellular; conditions: lysate, at 0.2 µM
[11] = target: Serine/threonine-protein kinase 38-like (Homo sapiens) (UniProt Q9Y2H1); assay: Selectivity interaction (KinomeScan (DiscoverX)) EUB0000655a STK38L; conditions: at 10 µM
[12] = target: T2, Serine/threonine-protein kinase TNNI3K (Homo sapiens) (UniProt Q59H18); assay: Selectivity interaction (Ambit KINOMEscan and KiNATiv profiling in Jurkat cells) EUB0000090b TNNI3K; assay type: cell-based; conditions: at 1 µM
T2 sequence (whole entry): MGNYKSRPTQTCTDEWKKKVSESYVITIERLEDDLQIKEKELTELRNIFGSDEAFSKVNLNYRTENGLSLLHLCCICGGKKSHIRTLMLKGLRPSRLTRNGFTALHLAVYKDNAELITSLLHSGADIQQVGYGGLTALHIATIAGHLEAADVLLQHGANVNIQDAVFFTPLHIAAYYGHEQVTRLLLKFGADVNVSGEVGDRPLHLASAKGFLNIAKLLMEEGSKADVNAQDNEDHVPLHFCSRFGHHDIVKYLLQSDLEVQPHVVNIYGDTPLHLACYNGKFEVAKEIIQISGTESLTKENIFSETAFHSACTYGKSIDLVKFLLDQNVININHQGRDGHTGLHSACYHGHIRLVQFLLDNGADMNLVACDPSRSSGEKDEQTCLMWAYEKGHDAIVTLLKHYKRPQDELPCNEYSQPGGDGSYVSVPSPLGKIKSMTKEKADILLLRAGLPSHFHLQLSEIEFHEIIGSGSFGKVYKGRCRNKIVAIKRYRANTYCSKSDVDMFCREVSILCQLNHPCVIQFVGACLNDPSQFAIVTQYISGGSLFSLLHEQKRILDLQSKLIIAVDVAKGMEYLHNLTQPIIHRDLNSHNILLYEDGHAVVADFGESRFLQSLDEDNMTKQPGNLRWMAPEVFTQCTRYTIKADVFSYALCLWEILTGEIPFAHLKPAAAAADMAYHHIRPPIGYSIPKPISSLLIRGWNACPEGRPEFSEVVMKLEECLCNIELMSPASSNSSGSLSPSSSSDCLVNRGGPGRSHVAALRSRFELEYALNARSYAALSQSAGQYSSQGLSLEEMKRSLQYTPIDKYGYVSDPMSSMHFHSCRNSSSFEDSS

Question: Which % of control [1] does the source give for `O=C(NOC[C@H](O)CO)c1ccc(F)c(F)c1Nc1ccc(I)cc1F` here?
Answer: 100%

Question: For `Cc1cc([C@@H](C)Nc2ccccc2C(=O)O)c2nc(N3CCOCC3)cc(=O)n2c1` [AZD-6482], which % of control [2] is on record?
Answer: 95%

Question: Which % of control ([3]; at 1 µM) does the source give for `C=CC(=O)Nc1cccc(C(=O)Nc2ccc(Nc3cc(-c4[nH]c(SC)nc4C)ccn3)cc2)c1` here?
Answer: 93%

Question: What about the % of control ([3]; at 5 µM) of the same compound?
Answer: 78%

Question: And the % of control ([4]; at 1 µM)?
Answer: 92%

Question: And the % of control ([4]; at 5 µM)?
Answer: 103%

Question: `N#Cc1cccc(-c2c[nH]c3ncnc(N4CCOCC4)c23)c1` was tested. Which % of control [5] did it give?
Answer: 100%

Question: Which results are given for `CNC(=O)Nc1ccc(-c2nc(N3CC4CCC(C3)O4)c3cnn(C4CCC5(CC4)OCCO5)c3n2)cc1`?
Answer: % of inhibition [6]: 14%; % of inhibition [7]: 2%

Question: Which % of inhibition [8] does the source give for `CC(C)(O)[C@H](F)CN1Cc2cc(NC(=O)c3cnn4cccnc34)c(N3CCOCC3)cc2C1=O` here?
Answer: 83.5%

Question: How did the % of control [9] turn out when `O[C@H]1CC[C@H](Nc2ncc3nc(Nc4c(F)cc(F)cc4F)n([C@H]4CCOC4)c3n2)CC1` was run?
Answer: 94%

Question: For `CC[C@@H]1[C@H](F)C(=O)N[C@@H]1COc1nccc2cc(C(N)=O)c(OC)cc12` [ZIMLOVISERTIB], which % of inhibition [10] is on record?
Answer: 5.5%

Question: With `CN(C)CCOc1ccc(-c2nc(-c3ccncc3)c(-c3ccc4c(c3)CC/C4=N\O)[nH]2)cc1` as the compound, how does the % of control [11] read?
Answer: 100%

Question: With `CN(C)C/C=C/C(=O)Nc1ccc(C(=O)N2CCCC(Nc3ncc(Cl)c(-c4c[nH]c5ccccc45)n3)C2)cc1` (centres undefined) as the compound, how does the % of control [12] read?
Answer: 86%
